The record followed here is patent US8329704B2, “Substituted pyrazinone derivatives for use in MCH-1 mediated diseases” (Janssen Pharmaceutica, N.V., priority 2005, dated 2012).

T1 sequence (Q99705 whole entry): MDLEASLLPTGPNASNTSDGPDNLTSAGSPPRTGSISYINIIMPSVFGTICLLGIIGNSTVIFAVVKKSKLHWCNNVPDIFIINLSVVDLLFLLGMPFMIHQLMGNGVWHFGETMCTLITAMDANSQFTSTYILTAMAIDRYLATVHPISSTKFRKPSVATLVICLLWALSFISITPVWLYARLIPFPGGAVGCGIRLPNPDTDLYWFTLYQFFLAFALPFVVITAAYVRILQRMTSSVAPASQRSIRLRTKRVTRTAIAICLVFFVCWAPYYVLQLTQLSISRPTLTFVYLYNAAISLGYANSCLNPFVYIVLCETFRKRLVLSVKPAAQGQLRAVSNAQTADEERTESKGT

The assay has as its target T1, human MCH-1 receptor (Homo sapiens, UniProt Q99705).
T1 construct: expressed in transfected cells
As to the kind of experiment: Ca2+ mobilization experiment for the MCH-1 receptor (FLIPR), inhibition of MCH-induced Ca2+ mobilization. The assay is classed as cell-based. Particulars: CHO cells stably expressing human MCH-1 receptor, inhibition of MCH-induced Ca2+ response, read-out: MCH-1 pIC50 (converted). The procedure:
The interaction of the compounds of Formula (I) with MCH-1 receptors was assessed in in vitro transient calcium (Ca^2+) mobilization assays in the fluorimetric imaging plate reader (FLIPR) format (Sullivan et al. 1999, Methods Mol Biol 114:125-133). In general, the natural agonist (MCH) is incubated with cells expressing the MCH-1 receptor, which elicits a concentration-dependent transient mobilization of Ca^2+ from internal stores. The interaction of the test compounds with the receptor is assessed in competition experiments. Various concentrations of the test compound are added to the incubation mixture containing the receptor-expressing cells and a submaximal concentration of MCH. The test compound in proportion to its antagonist potency and its concentration inhibits MCH-induced Ca^2+ mobilization.
Chinese Hamster ovary cells (CHO) stably expressing the human MCH-1 receptor are grown in a 1:1 mixture of Dulbecco's Modified Eagles Medium (DMEM) and HAM's F12 medium including Glutamax™ (Invitrogen), supplemented with 10% heat-inactivated fetal bovine serum and 400 μg/ml geneticin.
Twenty-four hours before the experiment, MCH-1 receptor-expressing CHO cells are seeded in 20 μl (5,000 cells per well) into 384-well black wall, clear bottom microtiter plates (Costar). On the day of the experiment, 20 μl per well calcium assay kit containing 10 mM probenicide (Molecular Devices) is added. Cells are loaded for 90 min at 37° C. and 5% CO2 in a cell culture incubator. After loading, 20 μl of serial dilutions of the test compound are added and cells are further incubated for 20 min at room temperature in the dark. After 20 min, 20 μl of a submaximal MCH concentration is added and changes in intracellular calcium are recorded directly in a FLIPR III apparatus (Molecular devices).
Data from assays in the presence of compound were calculated as a percentage of total Ca^2+-responses measured in the absence of test compound. Inhibition curves, plotting percent of total Ca^2+-responses versus the log value of the concentration of the test compound, were automatically generated, and sigmoidal inhibition curves were fitted using non-linear regression. The pIC50 values of test compounds were derived from individual curves.
On the technique in general: Calcium assays in cells follow changes in intracellular calcium, usually with a dye or a luminescent sensor.
Take `CNC1CCN(c2ccc(-n3ccnc(NCCOc4ccccc4)c3=O)cc2)C1` (centres unmarked) [1-01]: the IC50 was 501 nM. Next, `CC(=O)N(C)C1CCN(c2ccc(-n3ccnc(NCCOc4ccccc4)c3=O)cc2)C1` (centres unmarked) [1-02]: 251 nM. The result for `CC(C)C(=O)N(C)C1CCN(c2ccc(-n3ccnc(NCCOc4ccccc4)c3=O)cc2)C1` (centres unmarked) [1-03] reads 39.8 nM; that for `CN(C(=O)OC(C)(C)C)C1CCN(c2ccc(-n3ccnc(NCCOc4ccccc4)c3=O)cc2)C1` (centres unmarked) [1-04], 1580 nM. Next, `CN(C1CCN(c2ccc(-n3ccnc(NCCOc4ccccc4)c3=O)cc2)C1)S(C)(=O)=O` (centres unmarked) [1-05]: > 10000 nM; `O=c1c(NCCOc2ccccc2)nccn1-c1ccc(N2CCNCC2)cc1` [1-06]: 2000 nM. Regarding `CC(C)N1CCN(c2ccc(-n3ccnc(NCCOc4ccccc4)c3=O)cc2)CC1` [1-07], the IC50 is 1580 nM. Next, `COc1cc(-n2ccnc(NCCOc3ccccc3)c2=O)ccc1N1CCC(O)C1` (centres unmarked) [1-08]: 398 nM; `CNC1CCN(c2ccc(-n3ccnc(NCCOc4ccccc4)c3=O)cc2OC)C1` (centres unmarked) [1-09]: 20 nM. The result for `COc1cc(-n2ccnc(NCCOc3ccccc3)c2=O)ccc1N1CCC(N(C)C)C1` (centres unmarked) [1-10] reads 100 nM; that for `COc1cc(-n2ccnc(NCCOc3ccccc3)c2=O)ccc1N1CCC(N(C)C(=O)C(C)C)C1` (centres unmarked) [1-11], 100 nM. Next, `COc1cc(-n2ccnc(NCCOc3ccccc3)c2=O)ccc1N1CCC(N(C)C(=O)C2CC2)C1` (centres unmarked) [1-12]: 79.4 nM; `COc1cc(-n2ccnc(NCCOc3ccccc3)c2=O)ccc1N1CCC(N)CC1` [1-13]: 79.4 nM. For `COc1cc(-n2ccnc(NCCOc3ccccc3)c2=O)ccc1N1CCC(NC(C)=O)CC1` [1-14], the IC50 was 316 nM.

On to `COc1cc(-n2ccnc(NCCOc3ccccc3)c2=O)ccc1N1CCC(NC(=O)C(C)C)CC1` [1-15], for which the IC50 is 100 nM.

`O=c1c(NCCOc2ccccc2)nccn1-c1ccc(C=CCN2CCCC2)cc1` [1-16]: the IC50 was 100 nM. Next, `COc1cc(-n2ccnc(NCCOc3ccccc3)c2=O)ccc1/C=C/CN1CCCC1` [1-17]: 31.6 nM; `COc1cc(-n2ccnc(NCCOc3ccccc3)c2=O)ccc1/C=C/CN1CCOCC1` [1-18]: 39.8 nM; `CN(C)CCNc1ccc(-n2ccnc(NCCOc3ccccc3)c2=O)cc1` [1-19]: 100 nM. The result for `O=c1c(NCCOc2ccccc2)nccn1-c1ccc(NCCN2CCCC2)cc1` [1-20] reads 200 nM; that for `CN(C)CCCNc1ccc(-n2ccnc(NCCOc3ccccc3)c2=O)cc1` [1-21], 501 nM. The result for `CN(C)CC(=O)Nc1ccc(-n2ccnc(NCCOc3ccccc3)c2=O)cc1` [1-22] reads 2000 nM; that for `CNCCOc1ccc(-n2ccnc(NCCOc3ccccc3)c2=O)cc1` [1-23], 1260 nM; that for `CCCN(C)CCOc1ccc(-n2ccnc(NCCOc3ccccc3)c2=O)cc1` [1-24], 158 nM. Take `CN(CCOc1ccc(-n2ccnc(NCCOc3ccccc3)c2=O)cc1)C1CCCCC1` [1-25]: the IC50 was 631 nM.

For `CN(C)CCN(C)CCOc1ccc(-n2ccnc(NCCOc3ccccc3)c2=O)cc1` [1-27], the IC50 was > 10000 nM. Consider `CC(C)N(CCOc1ccc(-n2ccnc(NCCOc3ccccc3)c2=O)cc1)C(C)C` [1-28], for which the IC50 is 501 nM. The result for `COCCN(C)CCOc1ccc(-n2ccnc(NCCOc3ccccc3)c2=O)cc1` [1-29] reads 1580 nM; that for `CCCC(=O)N(C)CCOc1ccc(-n2ccnc(NCCOc3ccccc3)c2=O)cc1` [1-31], 316 nM. Next, `CN(CCOc1ccc(-n2ccnc(NCCOc3ccccc3)c2=O)cc1)CCc1ccccc1` [1-32]: 794 nM. As to `O=c1c(NCCOc2ccccc2)nccn1-c1ccc(OCCN(CCO)Cc2ccccc2)cc1` [1-33], the IC50 was 794 nM. Consider `CCN(CCOc1ccc(-n2ccnc(NCCOc3ccccc3)c2=O)cc1)Cc1ccncc1` [1-34], for which the IC50 was 1000 nM.

`O=c1c(NCCOc2ccccc2)nccn1-c1ccc(OCCN2CCCC2)cc1` [1-35]: the IC50 is 501 nM. Take `O=c1c(NCCOc2ccccc2)nccn1-c1ccc(OCCN2CCC(O)C2)cc1` (centres unmarked) [1-36]: the IC50 was 316 nM.

`O=C1CCC(=O)N1CCOc1ccc(-n2ccnc(NCCOc3ccccc3)c2=O)cc1` [1-37]: the IC50 is 100 nM. The result for `O=c1c(NCCOc2ccccc2)nccn1-c1ccc(OCCN2CCCCC2)cc1` [1-38] reads 1580 nM. The result for `O=c1c(NCCOc2ccccc2)nccn1-c1ccc(OCCN2CCC(F)CC2)cc1` [1-39] reads 200 nM; that for `O=C1CCN(CCOc2ccc(-n3ccnc(NCCOc4ccccc4)c3=O)cc2)CC1` [1-40], 251 nM.

In the case of `NC(=O)C1CCN(CCOc2ccc(-n3ccnc(NCCOc4ccccc4)c3=O)cc2)CC1` [1-41], the IC50 was 631 nM. The result for `COC(=O)C1CCN(CCOc2ccc(-n3ccnc(NCCOc4ccccc4)c3=O)cc2)CC1` [1-42] reads 158 nM; that for `O=c1c(NCCOc2ccccc2)nccn1-c1ccc(OCCN2CCC3(CC2)OCCO3)cc1` [1-43], 200 nM; that for `O=c1c(NCCOc2ccccc2)nccn1-c1ccc(OCCN2CCN(c3ccccc3)CC2)cc1` [1-45], 794 nM.

In the case of `O=c1c(NCCOc2ccccc2)nccn1-c1ccc(OCCCN2CCCC2)cc1` [1-46], the IC50 is 3160 nM. Consider `O=c1c(NCCOc2ccccc2)nccn1-c1ccc(OCCCCN2CCCC2)cc1` [1-47], for which the IC50 is 1000 nM.

Turning to `Cc1cc(-n2ccnc(NCCOc3ccccc3)c2=O)ccc1OCCN1CCCC1` [1-48], the IC50 was 50.1 nM. Turning to `C=CCc1cc(-n2ccnc(NCCOc3ccccc3)c2=O)ccc1OCCN1CCCC1` [1-49], the IC50 is 31.6 nM. The result for `O=c1c(NCCOc2ccccc2)nccn1-c1ccc(OCCN2CCCC2)c(CO)c1` [1-51] reads 126 nM; that for `COCc1cc(-n2ccnc(NCCOc3ccccc3)c2=O)ccc1OCCN1CCCC1` [1-52], 158 nM; that for `CC(=O)c1cc(-n2ccnc(NCCOc3ccccc3)c2=O)ccc1OCCN1CCCC1` [1-53], 100 nM. The result for `COC(=O)c1cc(-n2ccnc(NCCOc3ccccc3)c2=O)ccc1OCCN1CCCC1` [1-54] reads 200 nM; that for `NC(=O)c1cc(-n2ccnc(NCCOc3ccccc3)c2=O)ccc1OCCN1CCCC1` [1-55], 1000 nM; that for `O=c1c(NCCOc2ccccc2)nccn1-c1ccc(OCCN2CCCC2)c(Cl)c1` [1-56], 7940 nM.

Take `COc1cc(-n2ccnc(NCCOc3ccccc3)c2=O)ccc1OC1CNC1` [1-57]: the IC50 is 63.1 nM. Consider `COc1cc(-n2ccnc(NCCOc3ccccc3)c2=O)ccc1OC1CCNCC1` [1-58], for which the IC50 was 63.1 nM.

In the case of `COc1cc(-n2ccnc(NCCOc3ccccc3)c2=O)ccc1OCCNC1CC1` [1-59], the IC50 was 63.1 nM.

Consider `COc1cc(-n2ccnc(NCCOc3ccccc3)c2=O)ccc1OCCNCCO` [1-60], for which the IC50 is 200 nM. Regarding `COc1cc(-n2ccnc(NCCOc3ccccc3)c2=O)ccc1OCCN(C)C(C)=O` [1-61], the IC50 was 100 nM. On to `CCCC(=O)N(C)CCOc1ccc(-n2ccnc(NCCOc3ccccc3)c2=O)cc1OC` [1-62], for which the IC50 was 50.1 nM. The result for `COc1cc(-n2ccnc(NCCOc3ccccc3)c2=O)ccc1OCCN(C)C(=O)CN(C)C` [1-63] reads 200 nM; that for `COCC(=O)N(C)CCOc1ccc(-n2ccnc(NCCOc3ccccc3)c2=O)cc1OC` [1-64], 100 nM. `COc1cc(-n2ccnc(NCCOc3ccccc3)c2=O)ccc1OCCN(C)C(=O)C1CCCC1` [1-65]: the IC50 is 100 nM.

As for `COc1cc(-n2ccnc(NCCOc3ccccc3)c2=O)ccc1OCCN(C)C(=O)c1ccccc1` [1-66], the IC50 is 251 nM. The result for `COc1cc(-n2ccnc(NCCOc3ccccc3)c2=O)ccc1OCCN1CCCC1` [1-67] reads 63.1 nM; that for `COc1cc(-n2ccnc(NCCOc3ccccc3)c2=O)ccc1OCCN1CCC(O)C1` (centres unmarked) [1-68], 126 nM. The result for `COc1cc(-n2ccnc(NCCOc3ccccc3)c2=O)ccc1OCCN1CCC(F)CC1` [1-69] reads 5.01 nM; that for `COc1cc(-n2ccnc(NCCOc3ccccc3)c2=O)ccc1OCCN1CCC(F)CC1` [1-70], 12.6 nM. Next, `COc1cc(-n2ccnc(NCCOc3ccccc3)c2=O)ccc1OCCN1CCC(C#N)CC1` [1-71]: 100 nM; `COc1cc(-n2ccnc(NCCOc3ccccc3)c2=O)ccc1OCCN1CCCC(CO)C1` (centres unmarked) [1-72]: 50.1 nM; `COc1cc(-n2ccnc(NCCOc3ccccc3)c2=O)ccc1OCCN1CCC(F)(F)CC1` [1-73]: 50.1 nM. Regarding `COc1cc(-n2ccnc(NCCOc3ccccc3)c2=O)ccc1OCCN1CCOCC1` [1-74], the IC50 was 79.4 nM.

Take `COc1cc(-n2ccnc(NCCOc3ccccc3)c2=O)ccc1OCCCN1CCCC1` [1-75]: the IC50 was 100 nM.
